The results in this text go back to PMC11730591 (Scientific Reports, 2025).

Each structure is given as a SMILES string. Entries after “also recorded” stand apart in the source; their conditions may differ.

The target of assay [1] is T1, α-glucosidase (Saccharomyces cerevisiae, UniProt P53341). The assay can be described thus: In vitro α-glucosidase inhibition assay. It counts as biochemical. As to conditions: for α-Glucosidase inhibitory activity described in words: SAR discussion.
Assay [2] addresses T1, α-glucosidase. The assay is described as follows: Enzyme kinetic studies. It counts as biochemical.

T1 sequence (P53341 whole entry): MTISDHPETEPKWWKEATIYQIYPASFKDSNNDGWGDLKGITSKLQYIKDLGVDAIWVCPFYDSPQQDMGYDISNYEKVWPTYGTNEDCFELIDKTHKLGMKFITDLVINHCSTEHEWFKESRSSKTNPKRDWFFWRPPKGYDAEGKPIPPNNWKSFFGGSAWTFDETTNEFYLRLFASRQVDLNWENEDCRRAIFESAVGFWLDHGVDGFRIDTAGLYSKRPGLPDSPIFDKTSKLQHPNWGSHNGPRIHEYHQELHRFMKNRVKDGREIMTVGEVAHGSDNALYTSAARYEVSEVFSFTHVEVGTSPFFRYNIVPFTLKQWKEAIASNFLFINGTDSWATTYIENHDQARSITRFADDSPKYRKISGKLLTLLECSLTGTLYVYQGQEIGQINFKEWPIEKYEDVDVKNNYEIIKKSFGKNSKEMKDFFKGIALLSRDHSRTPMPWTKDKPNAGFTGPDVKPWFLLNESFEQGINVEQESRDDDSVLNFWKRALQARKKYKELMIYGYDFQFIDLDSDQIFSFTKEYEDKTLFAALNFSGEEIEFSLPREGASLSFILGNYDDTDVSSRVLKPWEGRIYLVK

Consider `COc1ccc(CNC(=O)CN2CCN(c3nc4ccccc4cc3/C=N/NC(N)=S)CC2)cc1` [Compound 7n, (E)-2-(4-(3-((2-carbamothioylhydrazono)methyl)quinolin-2-yl)piperazin-1-yl)-N-(4-methoxybenzyl)acetamide], for which the “α-Glucosidase inhibitory activity described in words” value in assay [1] is reported as “poor activity”.

Take `Cc1ccccc1NC(=O)CN1CCN(c2nc3ccccc3cc2/C=N/NC(N)=S)CC1` [Compound 7h, (E)-2-(4-(3-((2-carbamothioylhydrazono)methyl)quinolin-2-yl)piperazin-1-yl)-N-(o-tolyl)acetamide]: the “α-Glucosidase inhibitory activity described in words” value in assay [1] was “diminished activity”.

As usually defined, the Ki is the dissociation constant of the complex between target and ligand, obtained from inhibition or displacement. Read a high Ki as a looser hold on the target. On to `COc1ccc(OC)c(NC(=O)CN2CCN(c3nc4ccccc4cc3/C=N/NC(N)=S)CC2)c1` [Compound 7j, (E)-2-(4-(3-((2-carbamothioylhydrazono)methyl)quinolin-2-yl)piperazin-1-yl)-N-(2,5-dimethoxyphenyl)acetamide], for which the “Fold improvement in activity compared to acarbose” value in assay [1] (versus acarbose as positive control) amounted to 15 fold. The molecule also displayed a Ki in assay [2] of 32 µM. In assay [2] (Km increased, Vmax unchanged with increasing inhibitor concentration), the “Type of inhibition (Lineweaver-Burk plot)” value is “competitive inhibitor; also recorded: competitive inhibition”.
